Patent publication US20250145594A1, “MODULATORS OF THE INTEGRATED STRESS PATHWAY” (Calico Life Sciences LLC, priority 2020, published 2025)

What follows are compounds tested on ATF4 luciferase reporter in HEK293T cells (assay: ATF4-Luc assay (in vitro model of VWMD)). Conditions: Homo sapiens, HEK-293T, 7 h, HEK293T cells carrying the ATF4 luciferase reporter, 1 μg/mL tunicamycin, One Glo luminescence.
Assay type: cell-based, human
Procedure, shortened: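 Tunicamycin (1 μg/mL) stress with co-added compound for 7 hours in HEK293T cells stably carrying an ATF4 5′-UTR–luciferase reporter. EC50 values come from the luminescent signal (One Glo).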

SMILES	EC50 [nM]
O=C(COc1ccc(Cl)c(F)c1)NC12CC(n3cc(OCCOC(F)(F)F)cn3)(C1)C2 [Compound 451, 2-(4-chloro-3-fluorophenoxy)-N-(3-{4-[2-(trifluoromethoxy)ethoxy]-1H-pyrazol-1-yl}bicyclo[1.1.1]pentan-1-yl)acetamide]	< 10
COc1ncc(OCC(=O)NC23CC(c4ccnc(OCCCOC(F)(F)F)c4)(C2)C3)cn1 [Compound 452, 2-[(2-methoxypyrimidin-5-yl)oxy]-N-(3-{2-[3-(trifluoromethoxy)propoxy]pyridin-4-yl}bicyclo[1.1.1]pentan-1-yl)acetamide]	250 to 500
O=C(COc1ccc(Cl)c(F)c1)NC12CC(c3ccnc(OCCCOC(F)(F)F)c3)(C1)C2 [Compound 453, 2-(4-chloro-3-fluorophenoxy)-N-(3-{2-[3-(trifluoromethoxy)propoxy]pyridin-4-yl}bicyclo[1.1.1]pentan-1-yl)acetamide]	< 10
O=C(COc1ccc(Cl)c(F)c1)NC12CC(n3cc(OCCCOC(F)(F)F)cn3)(C1)C2 [Compound 454, 2-(4-chloro-3-fluorophenoxy)-N-(3-{4-[3-(trifluoromethoxy)propoxy]-1H-pyrazol-1-yl}bicyclo[1.1.1]pentan-1-yl)acetamide]	< 10
O=C(COc1ccc(Cl)c(F)c1)NC12CC(c3ccc(OCCCOC(F)(F)F)nc3)(C1)C2 [Compound 455, 2-(4-chloro-3-fluorophenoxy)-N-(3-{6-[3-(trifluoromethoxy)propoxy]pyridin-3-yl}bicyclo[1.1.1]pentan-1-yl)acetamide]	50 to 250
O=C(COc1ccc(Cl)c(F)c1)NC12CC(c3ccc(OCCOC(F)(F)F)nc3)(C1)C2 [Compound 456, 2-(4-chloro-3-fluorophenoxy)-N-(3-{6-[2-(trifluoromethoxy)ethoxy]pyridin-3-yl}bicyclo[1.1.1]pentan-1-yl)acetamide]	50 to 250
O=C(COc1ccc(Cl)c(F)c1)N[C@H]1CC[C@H](n2cc(OCCOC(F)(F)F)cn2)CC1 [Compound 457, 2-(4-chloro-3-fluorophenoxy)-N-[(1r,4r)-4-{4-[2-(trifluoromethoxy)ethoxy]-1H-pyrazol-1-yl}cyclohexyl]acetamide]	< 10
O=C(NC12CC(n3cc(OCCOC(F)(F)F)cn3)(C1)C2)C1COc2cc(Cl)c(Cl)cc2O1 (centres unmarked) [Compound 458, 6,7-dichloro-N-(3-{4-[2-(trifluoromethoxy)ethoxy]-1H-pyrazol-1-yl}bicyclo[1.1.1]pentan-1-yl)-2,3-dihydro-1,4-benzodioxine-2-carboxamide]	10 to 50
O=C(N[C@H]1CC[C@H](n2cc(OCCOC(F)(F)F)cn2)CC1)[C@H]1C[C@@H](O)c2cc(Cl)c(Cl)cc2O1 [Compound 459, (2R,4R)-6,7-dichloro-4-hydroxy-N-[(1r,4R)-4-{4-[2-(trifluoromethoxy)ethoxy]-1H-pyrazol-1-yl}cyclohexyl]-3,4-dihydro-2H-1-benzopyran-2-carboxamide]	< 10
O=C(CO[C@H]1C[C@@H](OC(F)(F)F)C1)NC12CCC(NC(=O)[C@H]3C[C@@H](O)c4cc(C(F)(F)F)ccc4O3)(CC1)C[C@@H]2O [Compound 460, (2R,4R)-4-hydroxy-N-[(3S)-3-hydroxy-4-(2-{[(1s,3R)-3-(trifluoromethoxy)cyclobutyl]oxy}acetamido)bicyclo[2.2.2]octan-1-yl]-6-(trifluoromethyl)-3,4-dihydro-2H-1-benzopyran-2-carboxamide]	< 10
O=C(CO[C@H]1C[C@@H](OC(F)(F)F)C1)NC12CC(NC(=O)[C@H]3C[C@@H](O)c4cc(Cl)c(F)cc4O3)(C1)C2 [Compound 461, (2R,4R)-6-chloro-7-fluoro-4-hydroxy-N-[3-(2-{[(1s,3S)-3-(trifluoromethoxy)cyclobutyl]oxy}acetamido)bicyclo[1.1.1]pentan-1-yl]-3,4-dihydro-2H-1-benzopyran-2-carboxamide]	< 10
COc1ccc2nn(C34CC(NC(=O)[C@H]5C[C@@H](O)c6cc(Cl)ccc6O5)(C3)C4)cc2n1 [Compound 462, (2R,4R)-6-chloro-4-hydroxy-N-[3-(5-methoxy-2H-pyrazolo[4,3-b]pyridin-2-yl)bicyclo[1.1.1]pentan-1-yl]-3,4-dihydro-2H-1-benzopyran-2-carboxamide]	< 10
O=C(NC12CC(n3cc(CCCCOC(F)(F)F)nn3)(C1)C2)[C@H]1C[C@@H](O)c2cc(Cl)ccc2O1 [Compound 465, (2R,4R)-6-chloro-4-hydroxy-N-(3-{4-[4-(trifluoromethoxy)butyl]-1H-1,2,3-triazol-1-yl}bicyclo[1.1.1]pentan-1-yl)-3,4-dihydro-2H-1-benzopyran-2-carboxamide]	< 10
O=C(NC12CC(n3cc(CCCCOC(F)(F)F)nn3)(C1)C2)[C@H]1C[C@@H](O)c2cc(Cl)c(F)cc2O1 [Compound 466, (2R,4R)-6-chloro-7-fluoro-4-hydroxy-N-(3-{4-[4-(trifluoromethoxy)butyl]-1H-1,2,3-triazol-1-yl}bicyclo[1.1.1]pentan-1-yl)-3,4-dihydro-2H-1-benzopyran-2-carboxamide]	< 10
O=C(NC12CC(n3cc(COCCOC(F)(F)F)nn3)(C1)C2)[C@H]1C[C@@H](O)c2cc(Cl)c(F)cc2O1 [Compound 467, (2R,4R)-6-chloro-7-fluoro-4-hydroxy-N-[3-(4-{[2-(trifluoromethoxy)ethoxy]methyl}-1H-1,2,3-triazol-1-yl)bicyclo[1.1.1]pentan-1-yl]-3,4-dihydro-2H-1-benzopyran-2-carboxamide]	< 10
O=C(NC12CC(c3nnc(OCCOC(F)(F)F)o3)(C1)C2)[C@H]1C[C@@H](O)c2cc(Cl)ccc2O1 [Compound 468, (2R,4R)-6-chloro-4-hydroxy-N-(3-{5-[2-(trifluoromethoxy)ethoxy]-1,3,4-oxadiazol-2-yl}bicyclo[1.1.1]pentan-1-yl)-3,4-dihydro-2H-1-benzopyran-2-carboxamide]	< 10
O=C(NC12CC(c3ccnc(OCCOC(F)(F)F)n3)(C1)C2)[C@H]1C[C@@H](O)c2cc(Cl)c(F)cc2O1 [Compound 469, (2R,4R)-6-chloro-7-fluoro-4-hydroxy-N-(3-{2-[2-(trifluoromethoxy)ethoxy]pyrimidin-4-yl)bicyclo[1.1.1]pentan-1-yl}-3,4-dihydro-2H-1-benzopyran-2-carboxamide]	< 10
O=C(NC12CC(n3cc(C4CC(OC(F)(F)F)C4)nn3)(C1)C2)[C@H]1C[C@@H](O)c2cc(C(F)(F)F)ccc2O1 (stereo partly drawn) [Compound 470, (2R,4R)-4-hydroxy-N-(3-{4-[(1s,3S)-3-(trifluoromethoxy)cyclobutyl]-1H-1,2,3-triazol-1-yl}bicyclo[1.1.1]pentan-1-yl)-6-(trifluoromethyl)-3,4-dihydro-2H-1-benzopyran-2-carboxamide]	< 10
O=C(NC12CC(n3cnc(C4CC(OC(F)(F)F)C4)c3)(C1)C2)[C@H]1C[C@@H](O)c2cc(C(F)(F)F)ccc2O1 (stereo partly drawn) [Compound 471, (2R,4R)-4-hydroxy-N-(3-{4-[(1s,3S)-3-(trifluoromethoxy)cyclobutyl]-1H-imidazol-1-yl}bicyclo[1.1.1]pentan-1-yl)-6-(trifluoromethyl)-3,4-dihydro-2H-1-benzopyran-2-carboxamide]	< 10
O=C(NC12CC(n3cnc([C@H]4C[C@@H](OC(F)(F)F)C4)c3)(C1)C2)[C@H]1C[C@@H](O)c2cc(Cl)c(F)cc2O1 [Compound 472, (2R,4R)-6-chloro-7-fluoro-4-hydroxy-N-(3-{4-[(1s,3S)-3-(trifluoromethoxy)cyclobutyl]-1H-imidazol-1-yl}bicyclo[1.1.1]pentan-1-yl)-3,4-dihydro-2H-1-benzopyran-2-carboxamide]	< 10
O=C(NC12CC(n3cc([C@H]4C[C@@H](OC(F)(F)F)C4)nn3)(C1)C2)[C@H]1C[C@@H](O)c2cc(Cl)c(F)cc2O1 [Compound 473, (2R,4R)-6-chloro-7-fluoro-4-hydroxy-N-(3-{4-[(1s,3S)-3-(trifluoromethoxy)cyclobutyl]-1H-1,2,3-triazol-1-yl}bicyclo[1.1.1]pentan-1-yl)-3,4-dihydro-2H-1-benzopyran-2-carboxamide]	< 10
O=C(NC12CC(n3cc(-c4ccc(OC(F)(F)F)cn4)cn3)(C1)C2)[C@@H]1C[C@@H](O)c2cc(Cl)c(F)cc2O1 [Compound 474, (2S,4R)-6-chloro-7-fluoro-4-hydroxy-N-(3-{4-[5-(trifluoromethoxy)pyridin-2-yl]-1H-pyrazol-1-yl}bicyclo[1.1.1]pentan-1-yl)-3,4-dihydro-2H-1-benzopyran-2-carboxamide]	< 10
O=C(NC12CC(n3cc(-c4ccc(OC(F)(F)F)cn4)cn3)(C1)C2)[C@H]1C[C@H](O)c2cc(Cl)c(F)cc2O1 [Compound 476, (2R,4S)-6-chloro-7-fluoro-4-hydroxy-N-(3-{4-[5-(trifluoromethoxy)pyridin-2-yl]-1H-pyrazol-1-yl}bicyclo[1.1.1]pentan-1-yl)-3,4-dihydro-2H-1-benzopyran-2-carboxamide]	< 10
O=C(NC12CC(n3cc(-c4ccc(C(F)(F)F)cn4)cn3)(C1)C2)[C@@H]1C[C@@H](O)c2cc(Cl)c(F)cc2O1 [Compound 477, (2S,4R)-6-chloro-7-fluoro-4-hydroxy-N-(3-{4-[5-(trifluoromethyl)pyridin-2-yl]-1H-pyrazol-1-yl}bicyclo[1.1.1]pentan-1-yl)-3,4-dihydro-2H-1-benzopyran-2-carboxamide]	< 10
O=C(NC12CC(n3cc(-c4ccc(C(F)(F)F)cn4)cn3)(C1)C2)[C@H]1C[C@H](O)c2cc(Cl)c(F)cc2O1 [Compound 478, (2R,4S)-6-chloro-7-fluoro-4-hydroxy-N-(3-{4-[5-(trifluoromethyl)pyridin-2-yl]-1H-pyrazol-1-yl}bicyclo[1.1.1]pentan-1-yl)-3,4-dihydro-2H-1-benzopyran-2-carboxamide]	< 10
O=C(NC12CC(n3cc(-c4cnn(C(F)(F)F)c4)cn3)(C1)C2)[C@H]1C[C@@H](O)c2cc(Cl)c(F)cc2O1 [Compound 479, (2R,4R)-6-chloro-7-fluoro-4-hydroxy-N-{3-[1′-(trifluoromethyl)-1H,1′H-[4,4′-bipyrazol]-1-yl]bicyclo[1.1.1]pentan-1-yl}-3,4-dihydro-2H-1-benzopyran-2-carboxamide]	< 10
